Tests used:
[1] = refractive index (Na D-line) (dimensionless); wn = mass fraction of the nth substance listed; conditions: 298.15 K, 101 kPa, Liquid, Standard Abbe refractometry
[2] = wn = mass fraction of the nth substance listed; conditions: 298.15 K, 101 kPa, Liquid; for viscosity: Capillary tube (Ostwald / Ubbelohde) method; for speed of sound: Linear variable-path acoustic interferometer; for mass density: Vibrating tube method

[Ba+2].[Cl-].[Cl-] [barium chloride] + O
Conditions | mass density, [2] [kg/m3] | refractive index, [1] | speed of sound, [2] [m/s] | viscosity, [2] [mPa·s]
w1 = 0.01 | 997.56 | 1.333 | 1516.7 | 0.909
w1 = 0.03 | 998.66 | 1.3337 | 1521.4 | 0.915
w1 = 0.05 | 999.74 | 1.3345 | 1525.3 | 0.921
